# Measured values: a melting point compilation (Tetko et al.; mined from patent text by program, amines drawn as free bases though some values may be those of a salt)
row,melting point [°C],Compound
1,173,O=C(Nc1cnc(-c2ccccc2)nc1C(=O)O)OCc1ccc(-c2ccccc2)cc1
2,138 to 143,COc1ccc(Cn2c(=O)c3c(Cl)cc(Cl)cc3n(Cc3ccccc3)c2=O)cc1
3,112,CC1(C)C=C(c2ccccn2)c2ccc(Cl)c(Cl)c2OC1
4,154 to 155,CCCCC(=O)N(Cc1ccc(-c2ccccc2-c2nc(=O)o[nH]2)cc1)c1sccc1C(=O)OC
5,305 to 307,Clc1ccc2nc(Cl)c3nnc(-c4ccccc4)n3c2c1
6,131 to 135,O=C1c2ccccc2C(=O)N1CC1Cc2ccc3c(c2O1)CCC3 (stereo not drawn)
7,141 to 142,CN(C[C@H]1CC[C@H](c2nc3ccccc3n2C)CC1)C(=O)OCc1ccccc1
8,213 to 217,Nc1nc(=O)n(COCc2ccccc2)cc1F
9,191 to 192,COc1cc(OCC(CO)CO)c(-c2cccs2)cc1C=CC(=O)c1ccc(S(N)(=O)=O)cc1
10,85 to 87,CCN1CC(COS(=O)(=O)c2ccc(C)cc2)Oc2ccccc21 (stereo not drawn)
11,176 to 179,COc1c(Cl)ccc(-c2cc(N)c(Cl)c(C(=O)NOC3CCCCO3)n2)c1F (stereo not drawn)
12,118 to 120,COc1cc2c(CC(=O)O)c(C)n(C(=O)c3ccccc3)c2cc1F
13,221 to 223,Cn1cc(C(=O)NCc2ccc(Cl)cc2)c(=O)c2cc(CN3CC=C(F)CC3)ccc21
14,80 to 81,Cc1ccn(-c2ccc(Oc3ccc(F)cc3)cc2)n1
15,124 to 125,O=C1C(=Cc2cccnc2)CCc2ccc(Br)cc21
16,222 to 224,CN1C(=O)C2C3CCC(C2C1=O)N1COc2ccccc2N=C31 (stereo not drawn)
17,182 to 183,O=C(O)COc1cccc(COC(=O)N(c2ccccc2)c2ccccc2)c1Cl
18,138 to 140,COCOc1c(-c2cncc3cccc([N+](=O)[O-])c23)ccc(OC)c1OC
19,100 to 103,CCN1CCCC(NC(=O)N2CCN(c3ccccc3)CC2)C1 (stereo not drawn)
20,114 to 116,COc1ccc(C#N)nc1C

row,melting point [°C],Compound
1,232,COC(=O)c1cccc(-c2c(C)c(C(=O)c3ccc(N)c(C(=O)OC)c3)n3ccccc23)c1
2,150,COC(=S)NCc1cn(-c2ccc(-n3cccc3)cc2)nn1
3,> 280,O=C1N=c2ccc(C3(c4nc5ccc(-c6ccccc6)cc5[nH]4)N=c4ccccc4=N3)cc2=NC1=O
4,234,Cc1cccc(C(=O)N(C(=O)c2cccc(C)c2)c2nc3ccccc3c(NCc3ccccc3)c2C#N)c1
5,234 to 235,O=C(Nc1ccncn1)c1ccccc1SSc1ccccc1C(=O)Nc1ccncn1
6,193 to 195,COc1ccc2[nH]c(C)c(/C=C/C(=O)c3cccnc3)c2c1
7,114 to 118,Cc1cc(O)c(SCc2ccc(F)cc2)c(=O)o1
8,203 to 204,CCOC(=O)c1cn(Cc2ccccc2OC)c2c(F)c(F)c(F)cc2c1=O
9,48 to 50,c1cc2c3c(cccc3c1)C(NCCCCCCCn1ccnc1)=N2
10,125 to 130,O=C1NC(Cc2ccccc2)=C2OCOCOC2C(Cc2ccccc2)N1 (stereo not drawn)
11,112 to 113,COC(=O)COc1ccc(C(C)CNS(=O)(=O)c2ccccc2)cc1F (stereo not drawn)
12,148 to 150,CC(C)(C)c1ccc2c(c1)c(Sc1ccccc1)c(CC(=O)O)n2Cc1ccc(Cl)cc1
13,185 to 186,NC(=O)CNC(=O)c1ccnc(-c2cccc3cc(COc4cccc(C(F)(F)F)c4)sc23)c1
14,166 to 168,CS(=O)(=O)c1ccc(-c2cnn(-c3cc(F)cc(F)c3)c(=O)c2-c2ccc(F)cc2)cc1
15,126 to 127,O=C1C[C@@H](NC(=O)OCc2ccccc2)C(=O)O1
16,148 to 150,COc1cc(F)ccc1CCN1c2nc(-c3ccncn3)cc(=O)n2CCC1C (stereo not drawn)
17,131,CCOC(=O)C1=C(C)NC(N=CN(C)C)=C(C(=O)OCC)C1c1ccccc1 (stereo not drawn)
18,91 to 93,OCC12CN3CN(C(c4ccccc4)N(C1)C3c1ccccc1)C2c1ccccc1 (stereo not drawn)
19,145,NC(=O)Cn1ccc(-c2ccc(Oc3ccc(F)cc3)cc2)n1
20,120 to 121,O=C(COc1cc(C(=O)O)c(O)c2ccccc12)c1ccccc1

row,melting point [°C],Compound
1,146,Clc1ccc(-c2ncn(CC3CC3)c2-c2ccncc2)cc1Cl
2,137 to 138,COC(=O)c1ccc(-c2nn(Cc3ccccc3)c3ccccc23)o1
3,85 to 87,OC(CCN1CCN(c2ccccc2)CC1)c1ccccc1 (stereo not drawn)
4,147 to 150,COc1ccc(C(CC(=O)O)CC(=O)O)cc1
5,153 to 154,OCCCc1ccc(Nc2ncc(-c3ccccc3)s2)nc1
6,121 to 125,CCOC(=O)c1cc(-c2ccncc2)c(C(F)(F)F)nc1N
7,114 to 116,CCOC(=O)C(C#N)=C(c1ccc(F)cc1)c1ccc(F)cc1
8,189 to 190,COc1ccc(Cl)cc1CNc1nc(Cl)nc2c1ncn2[C@@H]1SC[C@@H](O)[C@H]1O
9,248 to 250,CCCCc1nc2c(N)nc3cccnc3c2n1CCNC(=O)c1cc(C(C)(C)C)c(O)c(C(C)(C)C)c1
10,> 300,Cc1c(CCc2ccc3nc(N)oc3c2)nc2cc(CCl)ccn12
11,132 to 134,Cc1cc(C)c(S(=O)(=O)n2c(CCC(=O)O)cc3cc(Cl)ccc32)c(C)c1
12,165 to 170,COc1ccccc1SC(c1ccccc1)c1c(O)cc(-c2ccccc2)oc1=O (stereo not drawn)
13,248 to 253,O=C(c1cccc(N2CC(=O)N(S(=O)(=O)c3ccc(Cl)cc3)C2=O)c1)N1CCOCC1
14,71 to 73,OCC(CO)CCOc1ccccc1
15,246 to 248,COc1cc(OC)c(-c2nc(C)c(-c3cccnc3)[nH]2)cc1Br
16,140 to 142,COC(=O)C(C)Oc1ccccc1S(N)(=O)=O (stereo not drawn)
17,170,Cn1cncc1C(O)(c1ccc(C=O)cc1)c1ccc2c(c1)c(-c1cccc(Cl)c1)nc1nnnn12 (stereo not drawn)
18,> 250,COc1cc2ncc(C#N)c(Nc3cccc(SC)c3)c2cc1OC
19,144 to 145,CCOC(=O)c1c(Cn2cncn2)nc2sc(C)c(C)c2c1-c1ccc(Cl)cc1
20,159 to 160,COc1ccc2cc3c(N)nn(-c4ccccc4)c3nc2c1

# The remaining lines, values behind:
row,Compound,melting point [°C]
1,CCOc1nsc(S(C)(=O)=O)c1S(C)(=O)=O,158 to 160
2,O=C(O)CO[C@@H]1CCCC[C@H]1NC(=O)Nc1ccccc1 (relative stereo),166 to 168
3,CCOC(=O)C1=CC2(CCC1S(=O)(=O)Nc1ccc(F)cc1Cl)S(=O)(=O)CCS2(=O)=O (stereo not drawn),88 to 90
4,NC(=O)N1CC(Oc2ccc(C(F)(F)F)cc2Cl)C1,156 to 159
5,FC(F)(F)c1cc(/C=C/c2ncon2)ccc1Cl,85 to 87
6,CC(O)c1occc(=O)c1O (stereo not drawn),131 to 132
7,NS(=O)(=O)c1cc2c(s1)S(=O)(=O)CC(O)C2O (stereo not drawn),182 to 185
8,N#Cc1cc([N+](=O)[O-])c(O)c(O)c1F,154
9,O=C(CSCc1ccc(F)cc1)NO,115 to 116
10,O=CNCC1CCc2ccccc2N(C=O)C1 (stereo not drawn),128
11,CC(C)(C)C(=O)Oc1cc([N+](=O)[O-])cc([N+](=O)[O-])c1O,132 to 135
12,CCC1(CC)C=C(N2CCSC2=NC#N)c2cc(C#N)ccc2O1,251 to 252
13,CN1C(=O)CC[C@H]1COc1cccnc1,73 to 74
14,CC1(Br)CCc2cc3c(cc2C1=O)CCO3 (stereo not drawn),95 to 98
15,NNC(=O)c1ccc2[nH]ncc2c1,251 to 252
16,CCOP(=O)(OCC)C(CCC(C(N)=O)P(=O)(OCC)OCC)C(N)=O (stereo not drawn),232 to 234
17,COC(=O)c1cnc(N)nc1OC,221
18,CC(=O)NC[C@H]1CN(c2ccc(-c3ncns3)c(F)c2)C(=O)O1,199 to 200
19,Cc1ccc(-c2occc2C#N)cc1,66
20,COc1cc2c(c(OC(C)=O)c1)C1CCC3(C)C(OC(=O)C(F)(F)F)CCC3C1CC2 (stereo not drawn),137 to 138
21,CC[C@H](C)[C@H](NC(=O)N(C)Cc1ccccn1)C(=O)N[C@@H](Cc1ccccc1)C[C@H](O)[C@H](Cc1ccccc1)NC(=O)OCc1cncs1,64 to 67
22,CC(C)c1ccc(C(C)C)n1NC1=NCCN1,230 to 232

row,Compound,melting point [°C]
1,N#Cc1ccc(C2=NOC3(CCN(C(=O)CCCC(=O)O)CC3)C2)cc1,183 to 185
2,CCCCCCC(C)(C)c1cc(OCc2ccccc2)c(C2=C(CC#N)CCC(C)C2)c(OCc2ccccc2)c1 (stereo not drawn),85 to 86
3,Cn1c(=O)c2c(Cl)nccc2n(C)c1=O,220
4,CCCOCCOc1ccc(OCC(O)CNCCNc2cc(=O)n(C)c(=O)n2C)cc1 (stereo not drawn),125
5,CCCCNc1cc(Cl)nnc1NN,170 to 172
6,CCCOC(=O)C1=C(N)NC(C)=C(C(=O)OC(C)C)C1c1cccc([N+](=O)[O-])c1 (stereo not drawn),199
7,COc1cc(Br)c(O)c(/C=C/C(=O)/C=C/c2cc(OC)cc(Br)c2O)c1,155 to 157
8,Cc1nnc2n1-c1ccc(I)cc1C(c1ccccc1F)=NC2C (stereo not drawn),142 to 145
9,CCOC(=O)C1CCC2(c3cc(OC)c(OC)cc3CCN2C(=O)CCN(C)C)C(C2c3cc(OC)c(OC)cc3CCN2CC)C1 (stereo not drawn),154 to 156
10,Cc1ccc(S(F)(F)(F)(F)F)cc1[N+](=O)[O-],29 to 30
11,CCOC(=O)CNC1=C(C(=O)c2cccnc2Cl)CCC1,114 to 118
12,Clc1ccc2[nH]nc(I)c2c1,198 to 199
13,CON=C(C#CCCl)C(=O)OC,64 to 67
14,O=C(O)C1CCCCN1CC=CP(=O)(O)O (stereo not drawn),163 to 165
15,CC(C)(CF)C(=O)C(Oc1cccc(F)n1)n1cncn1 (stereo not drawn),116
16,O=C(CN1CCN(C(=O)CCCCCS)CC1)Nc1nc2ccccc2s1,89 to 92
17,CC(C)Nc1ncnc2cscc12,230
18,CC(O)c1nccc2c1CCCC2 (stereo not drawn),60 to 61
19,CCCCc1ccc(C2(O)CN3CCC2CC3)o1 (stereo not drawn),94 to 96
20,O=C(O)c1cn(C2CC2)c2cc(N3CCNC(c4ccoc4)C3)c(F)cc2c1=O (stereo not drawn),202 to 204
21,O=C(NCCO[N+](=O)[O-])c1ccc(Br)o1,61 to 63
